Measured values published in publication PMC5691699, “Processing ‘Ataulfo’ Mango into Juice Preserves the Bioavailability and Antioxidant Capacity of Its Phenolic Compounds” (Nutrients, 2017).
Where two headings read alike, the source gives them in different places.

Legend:
clinical = settings: for AUC/Dose: dose-adjusted AUC 0 to 6 h, n = 12
Excerpt: Phenolics in plasma were quantified according to the method of Chen, Milbury, Lapsley, and Blumberg. […] Subsequently, phenolics were extracted with acetonitrile. After centrifugation, the supernatant was removed, dried with nitrogen gas, and reconstituted in the aqueous HPLC mobile phase, filtered using Ultrafree Durapore Centrifugal filter devices (0.22, Merck Millipore, Billerica, MA, USA), and injected into the HPLC- ECD system, using previously optimized chromatographic conditions. The mobile phases were 75 mM citric acid and 25 mM ammonium acetate in 90% water/10% acetonitrile (A), and 75 mM citric acid and 25 mM ammonium acetate in 50% water/50% acetonitrile (B).
Results are expressed as mean ± standard deviation (SD). The maximum concentration (Cmax) in plasma and the time to reach Cmax (Tmax) were visually identified. The area under the concentration-time curve (AUC) of plasma phenolics was calculated using the linear trapezoidal integration equation [24]. The differences in Cmax, Tmax, and AUC of phenolics between mango flesh and juice treatments were examined using an analysis of covariance, with time 0 values as the covariant, followed by the Tukey-Kramer multi-comparison test. The Number Cruncher Statistical System version 6.0 software (NCSS, NCSS LLC, Kaysville, UT, USA) was used to perform all statistical analyses.

[1] = Urinary excretion (0–24 h) of phenolic compounds after 'Ataulfo' mango flesh or juice, HPLC-ECD; settings: for detection in urine: after mango flesh and juice consumption, 0–24 h; for urinary excretion, juice group versus flesh group: at 0–4 and 4–8 h, normalized to creatinine
[2] = in vivo
[3] = after mango flesh and juice consumption, 0–6 h
[4] = plasma, after 500 g mango flesh, healthy men, n = 12, mean ± SD
[5] = plasma, after 721 g mango juice, healthy men, n = 12, mean ± SD
[6] = plasma, after 500 g mango flesh
[7] = plasma, after 721 g mango juice
[8] = male, human, plasma, oral, 500 g, AUC, plasma, time 0 to 6 h, after 500 g mango flesh, n = 12, mean ± SD
[9] = male, human, plasma, oral, 500 g, Cmax, plasma, after 500 g mango flesh, healthy men, n = 12, mean ± SD
[10] = male, human, plasma, oral, 500 g, Tmax, plasma, after 500 g mango flesh, healthy men, n = 12, mean ± SD
[11] = male, human, plasma, oral, 721 g, AUC, plasma, time 0 to 6 h, after 721 g mango juice, n = 12, mean ± SD
[12] = male, human, plasma, oral, 721 g, Cmax, plasma, after 721 g mango juice, healthy men, n = 12, mean ± SD
[13] = male, human, plasma, oral, 721 g, Tmax, plasma, after 721 g mango juice, healthy men, n = 12, mean ± SD

COc1cc(/C=C/C(=O)O)ccc1O [Ferulic acid, ferulic acid]
detection in plasma (clinical; [3]): detected in plasma
Cmax (clinical; [4]): 16.5 ± 3.9 ng/mL
Tmax (clinical; [4]): 2.8 ± 2.1 h
Cmax (clinical; [5]): 32.7 ± 10.9 ng/mL
Tmax (clinical; [5]): 2.3 ± 1.5 h
AUC/Dose (clinical; [6]): 31.0 ± 9.63 (ng h/mL)/mg
AUC/Dose (clinical; [7]): 83.8 ± 30.2 (ng h/mL)/mg
AUC (clinical; plasma, time 0 to 6 h, after 500 g mango flesh, n = 12, mean ± SD): 60.2 ± 22.7 ng·h/mL
AUC (clinical; plasma, time 0 to 6 h, after 721 g mango juice, n = 12, mean ± SD): 133.4 ± 47.7 ng·h/mL
detection in urine [1]: detected in urine
urinary excretion, juice group versus flesh group [1]: significantly higher

O=C(O)c1ccc(O)c(O)c1 [Protocatechuic acid, protocatechuic acid]
detection in plasma (clinical; [3]): detected in plasma
AUC (clinical; [8]): 141 ± 73.9 ng·h/mL
Cmax (clinical; [9]): 30.8 ± 13.3 ng/mL
Tmax (clinical; [10]): 3.5 ± 2 h
AUC (clinical; [11]): 109 ± 5.4 ng·h/mL
Cmax (clinical; [12]): 34.5 ± 18 ng/mL
Tmax (clinical; [13]): 3.7 ± 1.7 h
greater absorption from mango flesh (clinical; mango flesh compared with juice): 49%
AUC/Dose (clinical; [6]): 344.8 ± 138.3 (ng h/mL)/mg
AUC/Dose (clinical; [7]): 204.90 ± 9.9 (ng h/mL)/mg
detection in urine [1]: not in urine

COc1cc(C(=O)O)ccc1O [Vanillic acid, vanillic acid]
detection in plasma (clinical; [3]): not in plasma
detection in urine [1]: detected in urine
urinary AUC/dose excretion ([1]; compared with the other urinary phenolics, values higher in the juice group): Higher

O=C(/C=C/c1ccc(O)c(O)c1)O[C@@H]1C[C@](O)(C(=O)O)C[C@@H](O)[C@H]1O [Chlorogenic acid, chlorogenic acid]
detection in plasma (clinical; [3]): detected in plasma
AUC (clinical; [8]): 209 ± 24.5 ng·h/mL
Cmax (clinical; [9]): 49.7 ± 7.3 ng/mL
Tmax (clinical; [10]): 3.5 ± 1.4 h
AUC (clinical; [11]): 367 ± 131 ng·h/mL
Cmax (clinical; [12]): 109.7 ± 0.26 ng/mL
Tmax (clinical; [13]): 2.5 ± 1.8 h
higher absorption from mango juice (clinical; mango juice compared with flesh): 62%
AUC/Dose (clinical; [6]): 11.5 ± 1.78 (ng h/mL)/mg
AUC/Dose (clinical; [7]): 50.12 ± 15.5 (ng h/mL)/mg

O=C(O)c1cc(O)c(O)c(O)c1 [Gallic acid, gallic acid]
AUC (clinical; male, human, in vivo): 38.5 ± 14.5 ng·h/mL
Cmax (clinical; male, human, in vivo): 7.9 ± 4.7 ng/mL
AUC (clinical; male, human, in vivo, AUC): 36.9 ± 24.3 ng·h/mL
Cmax (clinical; male, human, in vivo, Cmax): 8.7 ± 1.7 ng/mL
Tmax (clinical; male, human, in vivo, Tmax, plasma, after 500 g mango flesh, healthy men, n = 12, mean ± SD): 4.4 ± 1.1 h
Tmax (clinical; male, human, in vivo, Tmax, plasma, after 721 g mango juice, healthy men, n = 12, mean ± SD): 3.5 ± 1 h

O=C(O)/C=C/c1ccc(O)cc1 [p-coumaric acid]
detection in urine [1]: detected in urine
urinary excretion, juice group versus flesh group [1]: significantly higher

O=C(O)c1cc(O)ccc1O [Gentisic acid, gentisic acid]
detection in plasma (clinical; [3]): detected in plasma
AUC (clinical; male, human, in vivo): 50.9 ± 11.0 ng·h/mL
Cmax (clinical; male, human, in vivo): 12.2 ± 0.2 ng/mL
Tmax (clinical; male, human, in vivo): 2.8 ± 1.9 h
AUC (clinical; male, human, in vivo, AUC): 53.1 ± 8.3 ng·h/mL
Cmax (clinical; male, human, in vivo, Cmax): 11.8 ± 2.1 ng/mL
Tmax (clinical; male, human, in vivo, Tmax): 4 ± 1.4 h
AUC/Dose (clinical; [6]): 221.2 ± 34.0 (ng h/mL)/mg
AUC/Dose (clinical; [7]): 282.7 ± 59.1 (ng h/mL)/mg
detection in urine [1]: not in urine

Oc1cccc(O)c1O [Pyrogallol, pyrogallol]
detection in urine [1]: found in urine

COc1cc(/C=C/C(=O)O)cc(OC)c1O [sinapic acid]
urinary AUC/dose excretion ([2]; human): Higher
detection in urine [2]: detected in urine
detection in plasma (clinical; in vivo): not in plasma
